Source: ChEMBL document CHEMBL1687815, “In vivo selection of a missense mutation in adeR and conversion of the novel blaOXA-164 gene into blaOXA-58 in carbapenem-resistant Acinetobacter baumannii isolates from a hospitalized patient” (2010)
Calls of active or inactive are those of the source.

How the values were obtained:
Acinetobacter baumannii [1] = test: Antimicrobial activity against Acinetobacter baumannii isolate J expressing beta-lactamase OXA-58 isolated from bedsore in presence of Sulbactam by vitek 2 system
Acinetobacter baumannii [2] = test: Antimicrobial activity against Acinetobacter baumannii isolate F expressing beta-lactamase OXA-164 isolated from tracheostoma of patient in presence of Sulbactam by vitek 2 system
Acinetobacter baumannii [3] = test: Antimicrobial activity against Acinetobacter baumannii isolate K expressing beta-lactamase OXA-58 isolated from blood culture of patient in presence of Sulbactam by vitek 2 system
Acinetobacter baumannii [4] = test: Antimicrobial activity against Acinetobacter baumannii isolate G expressing beta-lactamase OXA-58 isolated from tracheal secretion of patient in presence of Sulbactam by vitek 2 system
Acinetobacter baumannii [5] = test: Antimicrobial activity against Acinetobacter baumannii isolate H expressing beta-lactamase OXA-58 isolated from tracheal secretion of patient in presence of Sulbactam by vitek 2 system
Acinetobacter baumannii [6] = test: Antimicrobial activity against Acinetobacter baumannii isolate I expressing beta-lactamase OXA-58 isolated from tracheal secretion of patient in presence of Sulbactam by vitek 2 system
Acinetobacter baumannii [7] = test: Antimicrobial activity against Acinetobacter baumannii isolate L expressing beta-lactamase OXA-58 isolated from tracheal secretion of patient in presence of Sulbactam by vitek 2 system
Acinetobacter baumannii [8] = test: Antimicrobial activity against Acinetobacter baumannii isolate M expressing beta-lactamase OXA-58 isolated from tracheal secretion of patient in presence of Sulbactam by vitek 2 system
Acinetobacter baumannii [9] = test: Antimicrobial activity against Acinetobacter baumannii isolate A expressing beta-lactamase OXA-164 isolated from tracheal secretion of patient in presence of Sulbactam by vitek 2 system
Acinetobacter baumannii [10] = test: Antimicrobial activity against Acinetobacter baumannii isolate B expressing beta-lactamase OXA-164 isolated from tracheal secretion of patient in presence of Sulbactam by vitek 2 system
Acinetobacter baumannii [11] = test: Antimicrobial activity against Acinetobacter baumannii isolate C expressing beta-lactamase OXA-164 isolated from tracheal secretion of patient in presence of Sulbactam by vitek 2 system
Acinetobacter baumannii [12] = test: Antimicrobial activity against Acinetobacter baumannii isolate D expressing beta-lactamase OXA-164 isolated from tracheal secretion of patient in presence of Sulbactam by vitek 2 system
Acinetobacter baumannii [13] = test: Antimicrobial activity against Acinetobacter baumannii isolate E expressing beta-lactamase OXA-164 isolated from tracheal secretion of patient in presence of Sulbactam by vitek 2 system
Acinetobacter baumannii [14] = test: Antimicrobial activity against Acinetobacter baumannii isolate J expressing beta-lactamase OXA-58 isolated from bedsore by vitek 2 system
Acinetobacter baumannii [15] = test: Antimicrobial activity against Acinetobacter baumannii isolate F expressing beta-lactamase OXA-164 isolated from tracheostoma of patient by vitek 2 system
Acinetobacter baumannii [16] = test: Antimicrobial activity against Acinetobacter baumannii isolate K expressing beta-lactamase OXA-58 isolated from blood culture of patient by vitek 2 system
Acinetobacter baumannii [17] = test: Antimicrobial activity against Acinetobacter baumannii isolate G expressing beta-lactamase OXA-58 isolated from tracheal secretion of patient by vitek 2 system
Acinetobacter baumannii [18] = test: Antimicrobial activity against Acinetobacter baumannii isolate H expressing beta-lactamase OXA-58 isolated from tracheal secretion of patient by vitek 2 system
Acinetobacter baumannii [19] = test: Antimicrobial activity against Acinetobacter baumannii isolate I expressing beta-lactamase OXA-58 isolated from tracheal secretion of patient by vitek 2 system
Acinetobacter baumannii [20] = test: Antimicrobial activity against Acinetobacter baumannii isolate L expressing beta-lactamase OXA-58 isolated from tracheal secretion of patient by vitek 2 system
Acinetobacter baumannii [21] = test: Antimicrobial activity against Acinetobacter baumannii isolate M expressing beta-lactamase OXA-58 isolated from tracheal secretion of patient by vitek 2 system
Acinetobacter baumannii [22] = test: Antimicrobial activity against Acinetobacter baumannii isolate A expressing beta-lactamase OXA-164 isolated from tracheal secretion of patient by vitek 2 system
Acinetobacter baumannii [23] = test: Antimicrobial activity against Acinetobacter baumannii isolate B expressing beta-lactamase OXA-164 isolated from tracheal secretion of patient by vitek 2 system
Acinetobacter baumannii [24] = test: Antimicrobial activity against Acinetobacter baumannii isolate C expressing beta-lactamase OXA-164 isolated from tracheal secretion of patient by vitek 2 system
Acinetobacter baumannii [25] = test: Antimicrobial activity against Acinetobacter baumannii isolate D expressing beta-lactamase OXA-164 isolated from tracheal secretion of patient by vitek 2 system
Acinetobacter baumannii [26] = test: Antimicrobial activity against Acinetobacter baumannii isolate E expressing beta-lactamase OXA-164 isolated from tracheal secretion of patient by vitek 2 system
Acinetobacter baumannii [27] = test: Antimicrobial activity against Acinetobacter baumannii isolate J expressing beta-lactamase OXA-58 isolated from bedsore in presence of Tazobactam by vitek 2 system
Acinetobacter baumannii [28] = test: Antimicrobial activity against Acinetobacter baumannii isolate F expressing beta-lactamase OXA-164 isolated from tracheostoma of patient in presence of Tazobactam by vitek 2 system
Acinetobacter baumannii [29] = test: Antimicrobial activity against Acinetobacter baumannii isolate K expressing beta-lactamase OXA-58 isolated from blood culture of patient in presence of Tazobactam by vitek 2 system
Acinetobacter baumannii [30] = test: Antimicrobial activity against Acinetobacter baumannii isolate G expressing beta-lactamase OXA-58 isolated from tracheal secretion of patient in presence of Tazobactam by vitek 2 system
Acinetobacter baumannii [31] = test: Antimicrobial activity against Acinetobacter baumannii isolate H expressing beta-lactamase OXA-58 isolated from tracheal secretion of patient in presence of Tazobactam by vitek 2 system
Acinetobacter baumannii [32] = test: Antimicrobial activity against Acinetobacter baumannii isolate I expressing beta-lactamase OXA-58 isolated from tracheal secretion of patient in presence of Tazobactam by vitek 2 system
Acinetobacter baumannii [33] = test: Antimicrobial activity against Acinetobacter baumannii isolate L expressing beta-lactamase OXA-58 isolated from tracheal secretion of patient in presence of Tazobactam by vitek 2 system
Acinetobacter baumannii [34] = test: Antimicrobial activity against Acinetobacter baumannii isolate M expressing beta-lactamase OXA-58 isolated from tracheal secretion of patient in presence of Tazobactam by vitek 2 system
Acinetobacter baumannii [35] = test: Antimicrobial activity against Acinetobacter baumannii isolate A expressing beta-lactamase OXA-164 isolated from tracheal secretion of patient in presence of Tazobactam by vitek 2 system
Acinetobacter baumannii [36] = test: Antimicrobial activity against Acinetobacter baumannii isolate B expressing beta-lactamase OXA-164 isolated from tracheal secretion of patient in presence of Tazobactam by vitek 2 system
Acinetobacter baumannii [37] = test: Antimicrobial activity against Acinetobacter baumannii isolate C expressing beta-lactamase OXA-164 isolated from tracheal secretion of patient in presence of Tazobactam by vitek 2 system
Acinetobacter baumannii [38] = test: Antimicrobial activity against Acinetobacter baumannii isolate D expressing beta-lactamase OXA-164 isolated from tracheal secretion of patient in presence of Tazobactam by vitek 2 system
Acinetobacter baumannii [39] = test: Antimicrobial activity against Acinetobacter baumannii isolate E expressing beta-lactamase OXA-164 isolated from tracheal secretion of patient in presence of Tazobactam by vitek 2 system
Escherichia coli [40] = test: Antimicrobial activity against Escherichia coli NEB 5-alpha harboring plasmid WH1266 by Etest; assay type: functional
Escherichia coli [41] = test: Antimicrobial activity against Escherichia coli NEB 5-alpha harboring beta-lactamase OXA-164 by Etest; assay type: functional
Escherichia coli [42] = test: Antimicrobial activity against Escherichia coli NEB 5-alpha harboring beta-lactamase OXA-58 by Etest; assay type: functional
Acinetobacter baumannii [43] = test: Antimicrobial activity against Acinetobacter baumannii ATCC 19606 harboring plasmid WH1266 by Etest; assay type: functional; settings: ATCC 19606 = CIP 70.34 = JCM 6841
Acinetobacter baumannii [44] = test: Antimicrobial activity against Acinetobacter baumannii ATCC 19606 harboring beta-lactamase OXA-164 by Etest; assay type: functional; settings: ATCC 19606 = CIP 70.34 = JCM 6841
Acinetobacter baumannii [45] = test: Antimicrobial activity against Acinetobacter baumannii ATCC 19606 harboring beta-lactamase OXA-58 by Etest; assay type: functional; settings: ATCC 19606 = CIP 70.34 = JCM 6841
Acinetobacter baumannii [46] = test: Antimicrobial activity against Acinetobacter baumannii ATCC 17978 harboring plasmid WH1266 by Etest; assay type: functional
Acinetobacter baumannii [47] = test: Antimicrobial activity against Acinetobacter baumannii ATCC 17978 harboring beta-lactamase OXA-164 by Etest; assay type: functional
Acinetobacter baumannii [48] = test: Antimicrobial activity against Acinetobacter baumannii ATCC 17978 harboring beta-lactamase OXA-58 by Etest; assay type: functional
Acinetobacter baumannii [49] = test: Antimicrobial activity against Acinetobacter baumannii isolate J expressing beta-lactamase OXA-58 isolated from bedsore by Etest
Acinetobacter baumannii [50] = test: Antimicrobial activity against Acinetobacter baumannii isolate F expressing beta-lactamase OXA-164 isolated from tracheostoma of patient by Etest
Acinetobacter baumannii [51] = test: Antimicrobial activity against Acinetobacter baumannii isolate K expressing beta-lactamase OXA-58 isolated from blood culture of patient by Etest
Acinetobacter baumannii [52] = test: Antimicrobial activity against Acinetobacter baumannii isolate G expressing beta-lactamase OXA-58 isolated from tracheal secretion of patient by Etest
Acinetobacter baumannii [53] = test: Antimicrobial activity against Acinetobacter baumannii isolate H expressing beta-lactamase OXA-58 isolated from tracheal secretion of patient by Etest
Acinetobacter baumannii [54] = test: Antimicrobial activity against Acinetobacter baumannii isolate I expressing beta-lactamase OXA-58 isolated from tracheal secretion of patient by Etest
Acinetobacter baumannii [55] = test: Antimicrobial activity against Acinetobacter baumannii isolate L expressing beta-lactamase OXA-58 isolated from tracheal secretion of patient by Etest
Acinetobacter baumannii [56] = test: Antimicrobial activity against Acinetobacter baumannii isolate M expressing beta-lactamase OXA-58 isolated from tracheal secretion of patient by Etest
Acinetobacter baumannii [57] = test: Antimicrobial activity against Acinetobacter baumannii isolate A expressing beta-lactamase OXA-164 isolated from tracheal secretion of patient by Etest
Acinetobacter baumannii [58] = test: Antimicrobial activity against Acinetobacter baumannii isolate B expressing beta-lactamase OXA-164 isolated from tracheal secretion of patient by Etest
Acinetobacter baumannii [59] = test: Antimicrobial activity against Acinetobacter baumannii isolate C expressing beta-lactamase OXA-164 isolated from tracheal secretion of patient by Etest
Acinetobacter baumannii [60] = test: Antimicrobial activity against Acinetobacter baumannii isolate D expressing beta-lactamase OXA-164 isolated from tracheal secretion of patient by Etest
Acinetobacter baumannii [61] = test: Antimicrobial activity against Acinetobacter baumannii isolate E expressing beta-lactamase OXA-164 isolated from tracheal secretion of patient by Etest

Measured: MIC

CC1(C)S[C@@H]2[C@H](NC(=O)[C@H](N)c3ccccc3)C(=O)N2[C@H]1C(=O)O
inactive: Acinetobacter baumannii [1] | Acinetobacter baumannii [2] | Acinetobacter baumannii [3] | Acinetobacter baumannii [4] | Acinetobacter baumannii [5] | Acinetobacter baumannii [6] | Acinetobacter baumannii [7] | Acinetobacter baumannii [8] | Acinetobacter baumannii [9] | Acinetobacter baumannii [10] | Acinetobacter baumannii [11] | Acinetobacter baumannii [12] | Acinetobacter baumannii [13]

CCN1CCN(C(=O)N[C@@H](C(=O)N[C@@H]2C(=O)N3[C@@H]2SC(C)(C)[C@@H]3C(=O)O)c2ccccc2)C(=O)C1=O
inactive: Acinetobacter baumannii [14] | Acinetobacter baumannii [15] | Acinetobacter baumannii [16] | Acinetobacter baumannii [17] | Acinetobacter baumannii [18] | Acinetobacter baumannii [19] | Acinetobacter baumannii [20] | Acinetobacter baumannii [21] | Acinetobacter baumannii [22] | Acinetobacter baumannii [23] | Acinetobacter baumannii [24] | Acinetobacter baumannii [25] | Acinetobacter baumannii [26] | Acinetobacter baumannii [27] | Acinetobacter baumannii [28] | Acinetobacter baumannii [29] | Acinetobacter baumannii [30] | Acinetobacter baumannii [31] | Acinetobacter baumannii [32] | Acinetobacter baumannii [33] | Acinetobacter baumannii [34] | Acinetobacter baumannii [35] | Acinetobacter baumannii [36] | Acinetobacter baumannii [37] | Acinetobacter baumannii [38] | Acinetobacter baumannii [39]

C[C@@H](O)[C@H]1C(=O)N2C(C(=O)O)=C(S[C@@H]3CN[C@H](C(=O)N(C)C)C3)[C@H](C)[C@H]12 [MEROPENEM]
0.032 µg/mL: Escherichia coli [41] | Escherichia coli [42]
2 µg/mL: Acinetobacter baumannii [22]
4 µg/mL: Acinetobacter baumannii [15] | Acinetobacter baumannii [23]
0.19 µg/mL: Acinetobacter baumannii [43]
8 µg/mL: Acinetobacter baumannii [14] | Acinetobacter baumannii [59] | Acinetobacter baumannii [16] | Acinetobacter baumannii [18] | Acinetobacter baumannii [19] | Acinetobacter baumannii [21] | Acinetobacter baumannii [24] | Acinetobacter baumannii [25] | Acinetobacter baumannii [26]
≥ 16 µg/mL: Acinetobacter baumannii [17] | Acinetobacter baumannii [20]
> 32 µg/mL: Acinetobacter baumannii [45] | Acinetobacter baumannii [47] | Acinetobacter baumannii [48]
≥ 64 µg/mL: Acinetobacter baumannii [49] | Acinetobacter baumannii [51] | Acinetobacter baumannii [52] | Acinetobacter baumannii [53] | Acinetobacter baumannii [54] | Acinetobacter baumannii [55] | Acinetobacter baumannii [56]
32 µg/mL: Acinetobacter baumannii [44] | Acinetobacter baumannii [57] | Acinetobacter baumannii [58] | Acinetobacter baumannii [60] | Acinetobacter baumannii [61]
0.25 µg/mL: Acinetobacter baumannii [46]
0.012 µg/mL: Escherichia coli [40]
16 µg/mL: Acinetobacter baumannii [50]
